Here are results for one molecule from article PMC6576746, “Rational discovery of dual-indication multi-target PDE/Kinase inhibitor for precision anti-cancer therapy using structural systems pharmacology” (PLoS Computational Biology, 2019).

Common to all, as to assay: biochemical
Common to all, as to parameters: DiscoverX KinomeScan competition binding assay across human kinases; per cent of control at 10 and 100 uM

For one test, the target named is NLK (Homo sapiens, UniProt Q9UBE8). Conditions: competition binding, % of control; read-out: Percent Control (100 uM Levosimendan). In outline:
(§1)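 Binding is expressed as %control, normalised between positive and negative control signals. The compound (levosimendan) was tested at 10 μM and 100 μM in the DiscoverX KinomeScan competition binding format against human kinases.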

The target in the next test is NEK9 (Homo sapiens, UniProt Q8TD19). The settings on record: competition binding, % of control; read-out: Percent Control (100 uM Levosimendan). In outline:
as §1

Test [1] has as its target T1, ABL1(F317I)-phosphorylated (Homo sapiens, UniProt P00519, F317I).
T1 construct: phosphorylated
The settings on record: competition binding, % of control; read-out: Percent Control (100 uM Levosimendan). In outline:
as §1

For the next test, the target named is MARK1 (Homo sapiens, UniProt Q9P0L2). The settings on record: competition binding, % of control; read-out: Percent Control (100 uM Levosimendan). A digest of the protocol: as §1
In another test the target is T2, YANK1 (Homo sapiens, UniProt Q8WU08).
T2 construct: gene STK32A
Conditions: competition binding, % of control; read-out: Percent Control (100 uM Levosimendan). In outline:
as §1

The target in the next test is MKNK2 (Homo sapiens, UniProt Q9HBH9). The settings on record: competition binding, % of control. In outline: as §1
The target in another test is TTK (Homo sapiens, UniProt P33981). Conditions: competition binding, % of control; read-out: Percent Control (100 uM Levosimendan). In outline: as §1

Structures are written as SMILES.

Chain of MKNK2 (Q9HBH9 whole entry): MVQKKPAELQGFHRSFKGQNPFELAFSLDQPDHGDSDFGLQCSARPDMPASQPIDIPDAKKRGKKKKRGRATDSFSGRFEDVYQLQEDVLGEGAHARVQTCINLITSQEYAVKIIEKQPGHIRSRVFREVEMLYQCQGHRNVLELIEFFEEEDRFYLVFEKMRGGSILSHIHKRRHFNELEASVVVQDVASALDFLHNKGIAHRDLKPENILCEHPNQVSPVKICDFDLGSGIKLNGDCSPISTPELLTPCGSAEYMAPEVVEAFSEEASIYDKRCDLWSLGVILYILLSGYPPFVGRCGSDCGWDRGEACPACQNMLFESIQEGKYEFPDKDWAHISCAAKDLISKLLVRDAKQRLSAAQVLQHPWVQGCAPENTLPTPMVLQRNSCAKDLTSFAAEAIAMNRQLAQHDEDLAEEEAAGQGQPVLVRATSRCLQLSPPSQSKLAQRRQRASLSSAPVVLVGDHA
Chain of MARK1 (Q9P0L2 whole entry): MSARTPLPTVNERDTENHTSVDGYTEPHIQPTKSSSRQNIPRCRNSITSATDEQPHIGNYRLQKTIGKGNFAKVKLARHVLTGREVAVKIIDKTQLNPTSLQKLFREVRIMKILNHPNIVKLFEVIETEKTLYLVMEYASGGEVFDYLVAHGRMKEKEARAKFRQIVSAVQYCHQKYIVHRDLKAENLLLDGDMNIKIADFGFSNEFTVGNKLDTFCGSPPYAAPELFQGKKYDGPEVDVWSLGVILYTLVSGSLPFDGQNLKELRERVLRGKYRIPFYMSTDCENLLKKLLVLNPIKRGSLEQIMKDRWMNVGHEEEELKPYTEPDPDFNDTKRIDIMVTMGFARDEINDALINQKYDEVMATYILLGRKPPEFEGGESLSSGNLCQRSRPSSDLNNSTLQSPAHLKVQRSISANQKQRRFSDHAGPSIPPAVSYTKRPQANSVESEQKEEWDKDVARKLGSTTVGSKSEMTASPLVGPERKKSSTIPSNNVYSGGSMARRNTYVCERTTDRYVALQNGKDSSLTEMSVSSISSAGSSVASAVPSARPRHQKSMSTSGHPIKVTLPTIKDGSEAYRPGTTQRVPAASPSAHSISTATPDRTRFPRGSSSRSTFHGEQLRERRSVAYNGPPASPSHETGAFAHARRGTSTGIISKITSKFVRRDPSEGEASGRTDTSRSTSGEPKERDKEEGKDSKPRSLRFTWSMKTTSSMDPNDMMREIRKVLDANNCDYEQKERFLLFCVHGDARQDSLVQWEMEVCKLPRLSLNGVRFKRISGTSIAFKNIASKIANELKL
Chain of NLK (Q9UBE8 whole entry): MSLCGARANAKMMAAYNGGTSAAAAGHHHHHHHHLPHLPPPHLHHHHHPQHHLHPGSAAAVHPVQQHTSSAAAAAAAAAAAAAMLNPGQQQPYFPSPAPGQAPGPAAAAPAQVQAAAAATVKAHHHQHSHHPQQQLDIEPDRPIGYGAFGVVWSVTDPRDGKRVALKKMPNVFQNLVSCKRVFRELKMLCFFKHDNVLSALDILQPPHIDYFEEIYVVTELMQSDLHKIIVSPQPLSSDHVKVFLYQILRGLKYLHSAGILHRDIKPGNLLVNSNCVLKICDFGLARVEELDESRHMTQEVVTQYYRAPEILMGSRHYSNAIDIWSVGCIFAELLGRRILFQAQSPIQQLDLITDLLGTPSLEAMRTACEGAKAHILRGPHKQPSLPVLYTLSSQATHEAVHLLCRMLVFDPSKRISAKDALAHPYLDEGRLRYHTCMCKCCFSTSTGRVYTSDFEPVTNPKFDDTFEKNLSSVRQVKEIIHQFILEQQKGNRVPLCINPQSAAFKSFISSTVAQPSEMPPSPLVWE
T2 sequence (Q8WU08 whole entry): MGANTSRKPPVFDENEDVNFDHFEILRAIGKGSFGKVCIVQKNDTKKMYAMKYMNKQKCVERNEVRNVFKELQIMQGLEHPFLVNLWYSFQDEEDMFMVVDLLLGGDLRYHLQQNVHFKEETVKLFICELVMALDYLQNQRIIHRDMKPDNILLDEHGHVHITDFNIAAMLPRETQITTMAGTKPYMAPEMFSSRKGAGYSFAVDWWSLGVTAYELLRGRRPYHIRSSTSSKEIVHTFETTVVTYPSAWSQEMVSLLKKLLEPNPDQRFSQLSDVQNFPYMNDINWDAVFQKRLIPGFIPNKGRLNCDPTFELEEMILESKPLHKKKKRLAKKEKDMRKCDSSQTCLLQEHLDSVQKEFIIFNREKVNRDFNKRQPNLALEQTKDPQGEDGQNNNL
Chain of TTK (P33981 whole entry): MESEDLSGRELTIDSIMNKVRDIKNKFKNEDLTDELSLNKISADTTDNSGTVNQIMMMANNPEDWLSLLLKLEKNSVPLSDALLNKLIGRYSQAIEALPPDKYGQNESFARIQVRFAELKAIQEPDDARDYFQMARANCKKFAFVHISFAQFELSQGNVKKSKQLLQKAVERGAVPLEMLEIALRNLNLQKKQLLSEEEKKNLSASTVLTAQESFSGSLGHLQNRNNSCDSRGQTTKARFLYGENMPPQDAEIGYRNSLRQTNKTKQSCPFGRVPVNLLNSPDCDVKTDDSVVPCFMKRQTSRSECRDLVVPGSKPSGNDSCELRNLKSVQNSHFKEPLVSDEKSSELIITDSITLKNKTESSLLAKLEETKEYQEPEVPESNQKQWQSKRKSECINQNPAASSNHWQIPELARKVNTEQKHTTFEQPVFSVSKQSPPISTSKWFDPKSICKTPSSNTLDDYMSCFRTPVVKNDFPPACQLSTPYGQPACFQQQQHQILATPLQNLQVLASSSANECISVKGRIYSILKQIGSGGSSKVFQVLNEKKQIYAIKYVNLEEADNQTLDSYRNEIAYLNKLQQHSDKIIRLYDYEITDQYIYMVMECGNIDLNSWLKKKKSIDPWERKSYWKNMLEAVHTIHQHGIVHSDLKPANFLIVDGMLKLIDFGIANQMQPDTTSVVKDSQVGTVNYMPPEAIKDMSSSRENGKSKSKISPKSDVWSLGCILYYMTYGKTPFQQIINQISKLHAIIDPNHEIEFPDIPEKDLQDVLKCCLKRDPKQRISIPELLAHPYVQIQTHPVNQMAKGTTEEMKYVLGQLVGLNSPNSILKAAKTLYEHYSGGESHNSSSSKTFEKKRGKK
Chain of NEK9 (Q8TD19 whole entry): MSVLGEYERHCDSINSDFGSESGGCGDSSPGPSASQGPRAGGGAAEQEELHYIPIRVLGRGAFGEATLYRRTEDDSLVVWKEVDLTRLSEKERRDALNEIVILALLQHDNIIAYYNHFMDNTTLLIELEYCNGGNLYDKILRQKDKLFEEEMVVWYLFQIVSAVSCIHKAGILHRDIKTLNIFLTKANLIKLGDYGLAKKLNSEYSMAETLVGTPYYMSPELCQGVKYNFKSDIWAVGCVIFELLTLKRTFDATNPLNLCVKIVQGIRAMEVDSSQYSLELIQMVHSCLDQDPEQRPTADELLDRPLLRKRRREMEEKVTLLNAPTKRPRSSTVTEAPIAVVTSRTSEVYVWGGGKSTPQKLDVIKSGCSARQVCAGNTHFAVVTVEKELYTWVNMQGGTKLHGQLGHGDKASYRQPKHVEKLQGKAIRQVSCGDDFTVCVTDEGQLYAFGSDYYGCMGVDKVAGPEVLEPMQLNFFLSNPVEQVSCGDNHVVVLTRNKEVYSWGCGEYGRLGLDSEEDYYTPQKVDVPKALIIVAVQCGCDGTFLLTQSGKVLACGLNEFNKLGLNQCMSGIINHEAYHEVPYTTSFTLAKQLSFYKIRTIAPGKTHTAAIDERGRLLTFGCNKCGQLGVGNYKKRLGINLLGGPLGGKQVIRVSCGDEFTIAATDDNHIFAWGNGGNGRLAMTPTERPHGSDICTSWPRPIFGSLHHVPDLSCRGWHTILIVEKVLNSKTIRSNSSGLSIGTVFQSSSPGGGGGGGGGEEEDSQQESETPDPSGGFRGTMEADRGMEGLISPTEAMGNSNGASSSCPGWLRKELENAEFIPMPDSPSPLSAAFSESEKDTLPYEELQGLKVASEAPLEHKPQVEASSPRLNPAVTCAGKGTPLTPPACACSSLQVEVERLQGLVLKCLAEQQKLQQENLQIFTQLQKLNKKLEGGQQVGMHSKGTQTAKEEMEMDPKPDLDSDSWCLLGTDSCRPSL

Consider `C[C@@H]1CC(=O)NN=C1c1ccc(NN=C(C#N)C#N)cc1` [levosimendan], for which the remaining binding at 100 µM amounted to 100% at NLK; 56% on NEK9; 100% in test [1]; 85% at MARK1; 94% on YANK1; 7.5% on MKNK2 (read-out: Percent Control (100 uM Levosimendan)). In addition, the remaining binding at 100 µM at TTK is 86%. Further, on MKNK2 (read-out: Percent Control (10 uM Levosimendan)), the remaining binding at 10 µM worked out at 59%.
